Results published in patent publication US20200017495A1, “NOVEL HETEROCYCLIC COMPOUNDS AND THEIR USE IN PREVENTING OR TREATING BACTERIAL INFECTIONS” (priority 2017, published 2020).
Read-outs that look alike come from different tables or passages of the source.

Tests used:
[1] = system: Providencia stuartii (PST) isolates; assay: MIC of compounds alone and combined with antibacterials, broth microdilution (CLSI); assay type: cell-based; conditions: Providencia stuartii, read-out: MIC
How it was run: (§1)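 Genotyped isolates; cpd ± antibacterial, DMSO spots; ca-MHB, 5.10^5 CFU/mL; 35° C, 16-20 h, air; visual MIC; ATB MIC per cpd concentration.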

[2] = system: Salmonella typhimurium (STY) isolates; assay: as above; assay type: cell-based; conditions: Salmonella enterica, TYPHIMURIUM; STY S3371; alone; read-out: MIC
How it was run: as §1

[3] = system: Citrobacter murliniae (CMU) isolates; assay: as above; assay type: cell-based; conditions: Citrobacter murliniae; CMU 210102; alone; read-out: MIC
How it was run: as §1

[4] = biological target: OXA-40 (Acinetobacter baumannii, UniProt Q8RLA6); assay: β-lactamase inhibitory activity, IC50 (nitrocefin hydrolysis); assay type: biochemical
OXA-40, sequence (Q8RLA6 entry or part of it): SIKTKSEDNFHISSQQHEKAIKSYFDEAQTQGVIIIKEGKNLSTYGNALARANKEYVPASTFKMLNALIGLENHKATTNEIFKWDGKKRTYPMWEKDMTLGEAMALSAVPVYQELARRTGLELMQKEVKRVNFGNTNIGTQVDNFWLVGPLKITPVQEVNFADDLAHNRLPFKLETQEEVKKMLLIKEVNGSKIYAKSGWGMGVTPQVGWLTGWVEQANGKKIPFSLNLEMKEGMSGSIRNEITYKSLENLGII
Protocol: (§3) Enzymes were cloned in E. coli expression vector, expressed and purified in house using classical procedures. […] After 30 min of pre-incubation at room temperature, 15 μL of NCF (100 μM final) were finally added in each well. […] Enzyme activity was obtained by subtracting the background from the final signal, and was converted to enzyme inhibition using non inhibited wells. IC50 curves were fitted to a classical Langmuir equilibrium model with Hill slope using XLFIT (IDBS).

[5] = biological target: CTX-M-15 (Escherichia coli, UniProt Q9EXV5); assay: as above; assay type: biochemical
CTX-M-15, sequence (Q9EXV5 entry or part of it): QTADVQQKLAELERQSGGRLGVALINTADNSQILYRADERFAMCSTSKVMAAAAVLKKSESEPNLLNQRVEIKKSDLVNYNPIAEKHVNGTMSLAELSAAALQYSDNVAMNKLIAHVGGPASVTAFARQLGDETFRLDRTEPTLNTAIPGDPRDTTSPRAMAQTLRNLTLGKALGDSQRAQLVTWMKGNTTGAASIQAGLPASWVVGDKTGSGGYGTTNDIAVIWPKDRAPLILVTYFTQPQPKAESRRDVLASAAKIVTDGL
Protocol: Method 1: β-Lactamase Inhibitory Activity, Determination of IC50 (Table 1)
as §3

[6] = biological target: TEM-1 (Escherichia coli, UniProt P62593); assay: as above; assay type: biochemical
TEM-1, sequence (P62593 24-286 limits assumed): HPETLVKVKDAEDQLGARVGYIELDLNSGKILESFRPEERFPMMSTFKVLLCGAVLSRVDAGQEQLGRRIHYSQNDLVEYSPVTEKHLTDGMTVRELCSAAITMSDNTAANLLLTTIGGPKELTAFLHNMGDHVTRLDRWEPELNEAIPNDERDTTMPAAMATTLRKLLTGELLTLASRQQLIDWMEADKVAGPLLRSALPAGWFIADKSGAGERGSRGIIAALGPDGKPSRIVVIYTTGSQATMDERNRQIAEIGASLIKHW
Protocol: as §3

[7] = biological target: PAE ampC (Pseudomonas aeruginosa, UniProt P24735); assay: as above; assay type: biochemical, P. aeruginosa
PAE ampC, sequence (P24735 27-397): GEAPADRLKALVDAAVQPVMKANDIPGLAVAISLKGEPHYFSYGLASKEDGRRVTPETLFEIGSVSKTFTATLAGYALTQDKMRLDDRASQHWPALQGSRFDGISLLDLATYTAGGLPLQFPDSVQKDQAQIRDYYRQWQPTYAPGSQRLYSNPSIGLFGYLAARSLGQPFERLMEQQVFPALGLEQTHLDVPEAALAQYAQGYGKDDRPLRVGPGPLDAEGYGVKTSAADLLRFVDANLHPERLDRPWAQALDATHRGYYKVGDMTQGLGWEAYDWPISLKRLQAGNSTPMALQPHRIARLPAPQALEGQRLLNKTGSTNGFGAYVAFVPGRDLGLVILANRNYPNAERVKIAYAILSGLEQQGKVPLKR
Protocol: as §3

[8] = biological target: SHV-1 (Klebsiella pneumoniae, UniProt P0AD64); assay: as above; assay type: biochemical
SHV-1, sequence (P0AD64 22-286): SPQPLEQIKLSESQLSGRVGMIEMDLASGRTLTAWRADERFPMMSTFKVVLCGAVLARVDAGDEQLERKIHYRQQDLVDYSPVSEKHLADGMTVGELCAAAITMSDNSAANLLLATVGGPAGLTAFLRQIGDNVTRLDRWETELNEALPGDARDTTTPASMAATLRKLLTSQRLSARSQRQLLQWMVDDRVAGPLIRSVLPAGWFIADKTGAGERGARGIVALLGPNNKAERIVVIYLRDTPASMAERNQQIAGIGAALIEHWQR
Protocol: as §3

[9] = biological target: OXA-11 (Pseudomonas aeruginosa, UniProt Q06778); assay: as above; assay type: biochemical
OXA-11, sequence (Q06778 21-266): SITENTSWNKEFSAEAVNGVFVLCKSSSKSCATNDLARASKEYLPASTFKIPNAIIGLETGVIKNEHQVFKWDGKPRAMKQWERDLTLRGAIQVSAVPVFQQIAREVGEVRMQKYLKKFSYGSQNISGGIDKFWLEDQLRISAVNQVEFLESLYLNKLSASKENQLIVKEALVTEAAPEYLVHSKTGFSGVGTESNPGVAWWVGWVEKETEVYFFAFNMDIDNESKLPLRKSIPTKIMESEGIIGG
Protocol: as §3

[10] = system: Proteus mirabilis (PMI) isolates; assay: microbe, parasite or virus in culture; assay type: cell-based; conditions: Proteus mirabilis, read-out: MIC
How it was run: (§2)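 First, log-phase suspensions are brought to 5.10^5 CFU/mL final in ca-MHB; plates then incubate 16-20 h at 35° C in air. Growth is judged visually, giving the compound MIC alone and the antibacterial MIC at each compound concentration.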

[11] = system: Enterobacter cloacae (ECL) isolates; assay: MIC of compounds alone and combined with antibacterials, broth microdilution (CLSI); assay type: cell-based; conditions: Enterobacter cloacae, read-out: MIC
How it was run: as §2

[12] = system: Providencia rettgeri (PRE) isolates; assay: as above; assay type: cell-based; conditions: Providencia rettgeri, read-out: MIC
How it was run: as §2

[13] = biological target: OXA-48 (Klebsiella pneumoniae, UniProt Q6XEC0); assay: β-lactamase inhibitory activity, IC50 (nitrocefin hydrolysis); assay type: biochemical
OXA-48, sequence (Q6XEC0 23-265 limits assumed): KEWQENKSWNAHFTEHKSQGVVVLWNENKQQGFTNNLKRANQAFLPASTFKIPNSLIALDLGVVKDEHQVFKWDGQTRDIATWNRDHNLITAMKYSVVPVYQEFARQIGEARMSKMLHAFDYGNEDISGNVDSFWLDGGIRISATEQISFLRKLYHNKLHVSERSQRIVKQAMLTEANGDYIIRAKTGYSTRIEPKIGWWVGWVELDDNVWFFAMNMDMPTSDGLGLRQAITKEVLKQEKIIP
Protocol: as §3

[14] = biological target: OXA-58 (Acinetobacter baumannii, UniProt Q2TR58); assay: as above; assay type: biochemical
OXA-58, sequence (Q2TR58 19-280): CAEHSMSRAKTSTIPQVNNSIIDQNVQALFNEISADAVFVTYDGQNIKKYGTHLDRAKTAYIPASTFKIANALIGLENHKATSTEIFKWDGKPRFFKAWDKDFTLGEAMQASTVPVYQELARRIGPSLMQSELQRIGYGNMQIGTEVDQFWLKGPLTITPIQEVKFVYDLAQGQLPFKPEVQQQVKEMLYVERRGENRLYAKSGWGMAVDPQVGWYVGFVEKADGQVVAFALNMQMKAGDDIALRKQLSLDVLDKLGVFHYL
Protocol: as §3

[15] = strain PST UFR98, compound alone
[16] = strain PMI UFR132, compound alone
[17] = strain ECL UFR192, compound alone
[18] = strain ECL UFR193, compound alone
[19] = strain ECL UFR194, compound alone
[20] = strain ECL UFR195, compound alone
[21] = strain ECL UFR196, compound alone
[22] = strain ECL UFR197, compound alone
[23] = strain ECL UFR198, compound alone
[24] = strain ECL UFR203, compound alone
[25] = strain ECL UFR214, compound alone
[26] = strain ECL UFR252PT, compound alone
[27] = strain PRE UFR96, compound alone
[28] = strain PRE UFR97, compound alone
[29] = strain PRE UFR236, compound alone

O=C1N2CC(c3ncco3)=CC(C2)N1OC(F)(F)C(=O)[O-].[Li+] (stereo not shown) [AF2]
MIC ([1]; PST UFR94, alone): 16 µg/mL
MIC ([1]; PST UFR95, alone): 32 µg/mL
MIC ([1]; PST UFR120, alone): 8 µg/mL
MIC ([1]; PST UFR121, alone): 4 µg/mL
MIC ([1]; PST UFR122, alone): 4 µg/mL
MIC ([1]; PST UFR123, alone): 8 µg/mL
MIC ([1]; PST UFR124, alone): 8 µg/mL
MIC ([1]; PST UFR125, alone): 8 µg/mL
MIC ([1]; PST UFR235, alone): 16 µg/mL
MIC [1, 15]: 32 µg/mL
MIC [2]: 8 µg/mL
MIC [3]: 16 µg/mL
IC50 [4]: 8300 nM
IC50 [5]: 1.5 nM
IC50 [6]: 2.6 nM
IC50 [7]: 280 nM
IC50 [8]: 12 nM
IC50 [9]: 84 nM
MIC ([10]; PMI UFR128, alone): 8 µg/mL
MIC ([10]; PMI UFR129, alone): 4 µg/mL
MIC ([10]; PMI UFR130, alone): 4 µg/mL
MIC [10, 16]: 4 µg/mL
MIC ([11]; ECL 190408, alone): 4 µg/mL
MIC ([11]; ECL HAN, alone): 32 µg/mL
MIC ([11]; ECL NEM146383, alone): 32 µg/mL
MIC ([11]; ECL P99, alone): 8 µg/mL
MIC ([11]; ECL UFR12, alone): 16 µg/mL
MIC ([11]; ECL UFR13, alone): 16 µg/mL
MIC ([11]; ECL UFR14, alone): 16 µg/mL
MIC ([11]; ECL UFR38, alone): 8 µg/mL
MIC ([11]; ECL UFR51, alone): 8 µg/mL
MIC ([11]; ECL UFR60, alone): 16 µg/mL
MIC ([11]; ECL UFR70, alone): 8 µg/mL
MIC ([11]; ECL UFR84, alone): 32 µg/mL
MIC ([11]; ECL UFR85, alone): 8 µg/mL
MIC ([11]; ECL UFR200, alone): 32 µg/mL
MIC [11, 17]: 16 µg/mL
MIC [11, 18]: 16 µg/mL
MIC [11, 19]: 8 µg/mL
MIC [11, 20]: 16 µg/mL
MIC [11, 21]: 16 µg/mL
MIC [11, 22]: 8 µg/mL
MIC [11, 23]: 32 µg/mL
MIC [11, 24]: 32 µg/mL
MIC [11, 25]: 32 µg/mL
MIC [11, 26]: > 32 µg/mL
MIC ([12]; PRE UFR99, alone): 16 µg/mL
MIC [12, 27]: 8 µg/mL
MIC [12, 28]: > 32 µg/mL
MIC [12, 29]: 32 µg/mL
IC50 [13]: 2.4 nM
IC50 [14]: 580 nM

O=C1N2CC(n3cccn3)=CC(C2)N1OC(F)(F)C(=O)[O-].[Li+] (stereo not shown) [AF3]
MIC ([1]; PST UFR94, alone): 16 µg/mL
MIC ([1]; PST UFR95, alone): > 32 µg/mL
MIC ([1]; PST UFR120, alone): 8 µg/mL
MIC ([1]; PST UFR121, alone): 8 µg/mL
MIC ([1]; PST UFR122, alone): 4 µg/mL
MIC ([1]; PST UFR123, alone): 4 µg/mL
MIC ([1]; PST UFR124, alone): 8 µg/mL
MIC ([1]; PST UFR125, alone): 4 µg/mL
MIC ([1]; PST UFR235, alone): 16 µg/mL
MIC [1, 15]: 16 µg/mL
MIC [2]: 8 µg/mL
MIC [3]: 16 µg/mL
IC50 [4]: 8900 nM
IC50 [5]: 0.66 nM
IC50 [6]: 0.81 nM
IC50 [7]: 98 nM
IC50 [8]: 6 nM
IC50 [9]: 40 nM
MIC ([10]; PMI UFR82, alone): 4 µg/mL
MIC ([10]; PMI UFR126, alone): 4 µg/mL
MIC ([10]; PMI UFR127, alone): 8 µg/mL
MIC ([10]; PMI UFR128, alone): 4 µg/mL
MIC ([10]; PMI UFR129, alone): 4 µg/mL
MIC ([10]; PMI UFR130, alone): 4 µg/mL
MIC ([10]; PMI UFR133, alone): 4 µg/mL
MIC ([10]; PMI UFR237, alone): 8 µg/mL
MIC ([10]; strain PMI UFR131, compound alone): 4 µg/mL
MIC [10, 16]: 8 µg/mL
MIC ([11]; ECL 2185D, alone): 32 µg/mL
MIC ([11]; ECL 190310, alone): 32 µg/mL
MIC ([11]; ECL 190408, alone): 4 µg/mL
MIC ([11]; ECL 200138, alone): 16 µg/mL
MIC ([11]; ECL 200322, alone): 8 µg/mL
MIC ([11]; ECL 260033, alone): 16 µg/mL
MIC ([11]; ECL 260253, alone): 32 µg/mL
MIC ([11]; ECL 260323, alone): 16 µg/mL
MIC ([11]; ECL 260508, alone): 8 µg/mL
MIC ([11]; ECL HAN, alone): 32 µg/mL
MIC ([11]; ECL NEM146383, alone): 16 µg/mL
MIC ([11]; ECL P99, alone): 16 µg/mL
MIC ([11]; ECL UFR12, alone): 8 µg/mL
MIC ([11]; ECL UFR13, alone): 32 µg/mL
MIC ([11]; ECL UFR14, alone): 32 µg/mL
MIC ([11]; ECL UFR38, alone): 8 µg/mL
MIC ([11]; ECL UFR51, alone): 8 µg/mL
MIC ([11]; ECL UFR60, alone): 16 µg/mL
MIC ([11]; ECL UFR70, alone): 8 µg/mL
MIC ([11]; ECL UFR84, alone): 32 µg/mL
MIC ([11]; ECL UFR85, alone): 16 µg/mL
MIC ([11]; ECL UFR200, alone): 16 µg/mL
MIC [11, 17]: 32 µg/mL
MIC [11, 18]: 16 µg/mL
MIC [11, 19]: 16 µg/mL
MIC [11, 20]: 16 µg/mL
MIC [11, 21]: 16 µg/mL
MIC [11, 22]: 16 µg/mL
MIC [11, 23]: 32 µg/mL
MIC [11, 24]: 32 µg/mL
MIC [11, 25]: > 32 µg/mL
MIC [11, 26]: > 32 µg/mL
MIC ([12]; PRE UFR99, alone): 16 µg/mL
MIC [12, 27]: 4 µg/mL
MIC [12, 28]: 32 µg/mL
MIC [12, 29]: 32 µg/mL
IC50 [13]: 5.1 nM
IC50 [14]: 1000 nM
